Experimental findings from paper PMC6792352, “Limited Chemical Structural Diversity Found to Modulate Thyroid Hormone Receptor in the Tox21 Chemical Library” (Environmental Health Perspectives, 2019) are described below.

Structures can show the parent of a compound that is named as a salt. Where only a bound is given, the exact number is not on record here.

This data set is described as follows: in vitro. Conditions: rat, gh3-tre-luc cells.

Broadly, the CC50 is the concentration at which the toxic effect on the cells reaches its halfway point. The low end stands for greater toxicity to the cells, the high end for lower toxicity to the cells. As to `CC(O)(P(=O)(O)O)P(=O)(O)O` [Etidronic acid], the half-maximal cytotoxic concentration (CC50) at 24 h (AC50 (uM) modified / 1000) is > 90 µM.
With `N[C@@H]1CN(c2c(F)cc3c(=O)c(C(=O)O)cn([C@@H]4C[C@@H]4F)c3c2Cl)CC12CC2` [Sitafloxacin], the CC50 at 24 h (AC50 (uM) modified / 1000) was > 50 µM.
For `C[C@@H]1C[C@H]2[C@@H]3C[C@H](F)C4=CC(=O)C(Cl)=C[C@]4(C)[C@@]3(F)[C@@H](O)C[C@]2(C)[C@@]1(O)C(=O)CO` [Halometasone hydrate], the CC50 at 24 h (AC50 (uM) modified / 1000) is > 50 µM.
Regarding `Cc1cccc[n+]1[O-]` [2-Methylpyridine 1-oxide], where the note is “AC50 (uM) modified / 1000”, the CC50 at 24 h was > 90 µM.
Still for that read-out and setting: under `CCOS(=O)(=O)OCC` [Diethyl sulfate] stands > 90 µM.
Regarding `CCN(CCO)CCCC(C)Nc1ccnc2cc(Cl)ccc12` (stereo not drawn) [Hydroxychloroquine sulfate], the CC50 at 24 h (AC50 (uM) modified / 1000) is > 50 µM.
`COC(=O)C(C)O` (stereo not drawn) [Methyl 2-hydroxypropanoate]: for the setting “AC50 (uM) modified / 1000”, the CC50 at 24 h was > 90 µM.
On to `CC(=O)CCC1=C(C)CCCC1(C)C` [Dihydro-beta-ionone], for which, where the note is “AC50 (uM) modified / 1000”, the half-maximal cytotoxic concentration (CC50) at 24 h is > 90 µM.
With `COP(=O)(NC(C)=O)SC` (stereo not drawn) [Acephate], the CC50 at 24 h (AC50 (uM) modified / 1000, Tox21_110001=Tox21_202204, viability, 1 nM T3 present, 24 h) was > 90 µM.
In the case of `ClC1=C(Cl)[C@]2(Cl)[C@@H]3[C@H]4C[C@H]([C@@H]5O[C@H]45)[C@@H]3[C@@]1(Cl)C2(Cl)Cl` [Endrin], the CC50 at 24 h runs as follows: (AC50 (uM) modified / 1000, Tox21_110001=Tox21_111120, viability, 1 nM T3 present, 24 h) 34.4 µM; (AC50 (uM) modified / 1000, Tox21_110001=Tox21_300613, viability, 1 nM T3 present, 24 h) > 90 µM.
Consider `CC(CCl)OC(C)CCl` (stereo not drawn) [bis(2-Chloro-1-methylethyl) ether], for which, for the setting “AC50 (uM) modified / 1000”, the CC50 at 24 h was > 90 µM.
In the case of `O=C(Cl)c1ccccc1` [Benzoyl chloride], the cytotoxic concentration (CC50) at 24 h (AC50 (uM) modified / 1000) is > 90 µM.
The same measure, in the same setting: under `CCCCN1CCCC1C(=O)Nc1c(C)cc(C)cc1C` (stereo not drawn) [Bumecaine] stands > 50 µM.
On to `CC(C)[C@@H](Nc1ccc(C(F)(F)F)cc1Cl)C(=O)OC(C#N)c1cccc(Oc2ccccc2)c1` (stereo partly drawn) [tau-Fluvalinate], for which, under “AC50 (uM) modified / 1000”, the CC50 at 24 h was > 90 µM.
The same measure, in the same setting: under `CC(=O)OCC(=O)[C@@]1(O)[C@H](OC(C)=O)C[C@H]2[C@@H]3CCC4=CC(=O)C=C[C@]4(C)[C@@]3(F)[C@@H](O)C[C@@]21C` [Triamcinolone diacetate] stands > 50 µM; under `C[C@@H]1C(=O)NC2=Nc3cccc(Cl)c3CN21` [Quazinone], > 50 µM.
For the compound `CCc1ccc2c(c1)N(CC(C)CN(C)C)c1ccccc1S2` (stereo not drawn) [Etymemazine hydrochloride], the cytotoxic concentration (CC50) at 24 h (AC50 (uM) modified / 1000) turned out to be 9.18 µM.
In the case of `Nc1ccc(Cl)cc1Cl` [2,4-Dichloroaniline], for the setting “AC50 (uM) modified / 1000”, the CC50 at 24 h was > 90 µM.
Take `C=CCc1ccccc1O` [2-Allylphenol]: the CC50 at 24 h (AC50 (uM) modified / 1000) was > 90 µM.
For `Clc1nc(Cl)c(Cl)c(Cl)c1Cl` [Pentachloropyridine], the CC50 at 24 h (AC50 (uM) modified / 1000) is > 90 µM.
Turning to `CCCCCCC` [Heptane], the CC50 at 24 h (AC50 (uM) modified / 1000) was > 100 µM.
With `Cc1cc(C)n(CO)n1` [(3,5-Dimethyl-1H-pyrazol-1-yl)methanol], the CC50 at 24 h (AC50 (uM) modified / 1000) was > 90 µM.
For `CC(C)(C)C1CCC(=O)CC1` [4-tert-Butylcyclohexanone], for the setting “AC50 (uM) modified / 1000”, the 50% cytotoxic concentration (CC50) at 24 h is > 90 µM.
Still for that read-out and setting: next, `CC(=O)N(CC(O)CO)c1c(I)c(C(=O)NCC(O)CO)c(I)c(C(=O)NCC(O)CO)c1I` (mixture of isomers) [Iohexol]: > 50 µM; `O=C1c2ccccc2C(=O)N1CCc1noc(-c2ccc(CN3CCCCCC3)s2)n1` [PharmaGSID_48172]: > 80 µM; `COP(=O)(OC)OC(c1ccc(Cl)cc1)P(=O)(OC)OC` (stereo not drawn) [Mifobate]: > 50 µM.
As to `Nc1ncnc2nc[nH]c12` [Adenine], the CC50 at 24 h (AC50 (uM) modified / 1000) was > 90 µM.
In the case of `O=[N+]([O-])c1cc([N+](=O)[O-])c2ccccc2c1` [1,3-Dinitronaphthalene], for the setting “AC50 (uM) modified / 1000, Tox21_110001=Tox21_400056, viability, 1 nM T3 present, 24 h”, the CC50 at 24 h was > 90 µM.
Take `CCC(CO)CO` [2-Ethylpropane-1,3-diol]: under “AC50 (uM) modified / 1000”, the 50% cytotoxic concentration (CC50) at 24 h is > 90 µM.
In the case of `O=C(Cc1ccccc1)OCc1ccccc1` [Benzyl phenylacetate], under “AC50 (uM) modified / 1000, Tox21_110001=Tox21_200685, viability, 1 nM T3 present, 24 h”, the CC50 at 24 h was > 90 µM.
As for `CCCCCCCCCCOc1cc2c(O)c(C(=O)OCC)cnc2cc1OCC` [Decoquinate], the 50% cytotoxic concentration (CC50) at 24 h (AC50 (uM) modified / 1000) was > 50 µM.
As for `CCOP(=S)(OCC)Oc1cc(-c2ccccc2)on1` [Isoxathion], the half-maximal cytotoxic concentration (CC50) at 24 h (AC50 (uM) modified / 1000, Tox21_110001=Tox21_302209, viability, 1 nM T3 present, 24 h) is > 90 µM.
For `CCN1CCCC1CNC(=O)c1cc(S(=O)(=O)CC)c(N)cc1OC` (stereo not drawn) [Amisulpride], for the setting “AC50 (uM) modified / 1000”, the cytotoxic concentration (CC50) at 24 h was > 50 µM.
On to `COC(=O)C1=C(C)NC(C)=C(C(=O)O[C@@H]2CCCN(Cc3ccccc3)C2)[C@@H]1c1cccc([N+](=O)[O-])c1` (racemic) [rac Benidipine hydrochloride], for which, where the note is “AC50 (uM) modified / 1000”, the midpoint of cytotoxicity, the CC50 at 24 h, lay at 25.5 µM.
The same measure, in the same setting: under `CC[C@@H](CO)NCCN[C@@H](CC)CO` [Ethambutol dihydrochloride] stands > 20 µM; under `O=c1c(-c2ccccc2)c1-c1ccccc1` [Diphenylcyclopropenone], 5.54 µM; under `O=c1oc2c(O)c(O)cc3c(=O)oc4c(O)c(O)cc1c4c23` [Ellagic acid], > 50 µM.
As for `C=C1CC[C@@]2(O)[C@H]3Cc4ccc(O)c5c4[C@@]2(CCN3CC2CC2)[C@H]1O5` [Nalmefene], the cytotoxic concentration (CC50) at 24 h (AC50 (uM) modified / 1000) was > 50 µM.
`COc1ccc(-c2coc3cc(O)ccc3c2=O)cc1` [Formononetin]: the 50% cytotoxic concentration (CC50) at 24 h (AC50 (uM) modified / 1000) is > 90 µM.
As for `CC(C)OC(=O)CCC(=O)OC(C)C` [Dipropan-2-yl butanedioate], where the note is “AC50 (uM) modified / 1000”, the half-maximal cytotoxic concentration (CC50) at 24 h is > 90 µM.
As for `CC(C)CCC[C@@H](C)[C@H]1CC[C@H]2[C@@H]3CC[C@@H]4C[C@H](O)CC[C@]4(C)[C@H]3CC[C@]12C` [(3alpha,5beta)-Cholestan-3-ol], the CC50 at 24 h (AC50 (uM) modified / 1000) was > 50 µM.
For the compound `O=C1CCC(C2CCCCC2)CC1` [4-Cyclohexylcyclohexanone], the CC50 at 24 h (AC50 (uM) modified / 1000) is > 90 µM.
The same measure, in the same setting: under `C[C@H]1O[C@H](O[C@H]2[C@H](O)[C@@H](O)[C@@H](O[C@@H]([C@H](O)[C@@H](O)C=O)[C@H](O)CO)O[C@@H]2CO)[C@H](O)[C@@H](O)[C@@H]1N[C@H]1C=C(CO)[C@@H](O)[C@H](O)[C@H]1O` [Acarbose] stands > 50 µM; under `O=C(OCC(COC(=O)c1ccccc1)(COC(=O)c1ccccc1)COC(=O)c1ccccc1)c1ccccc1` [2,2-Bis[(benzoyloxy)methyl]dibenzoate propanediol], > 90 µM; under `COc1cc(N)c(Cl)cc1C(=O)NC1CN2CCC1CC2` (stereo not drawn) [Zacopride hydrochloride], > 50 µM.
Regarding `CC(C)C(=O)OCCOc1ccccc1` [Phenoxyethyl isobutyrate], the CC50 at 24 h (AC50 (uM) modified / 1000) was > 90 µM.
In the case of `CC[C@@H](NC(C)C)[C@@H](O)c1ccc(O)c2[nH]c(=O)ccc12` [Procaterol], the CC50 at 24 h (AC50 (uM) modified / 1000) is > 50 µM.
Take `CCC=CCCCCO` (stereo in doubt) [(Z)-5-Octen-1-ol]: for the setting “AC50 (uM) modified / 1000”, the CC50 at 24 h was > 90 µM.
In the case of `O=C(c1ccccc1)c1ccc(O)cc1O` [2,4-Dihydroxybenzophenone], the CC50 at 24 h (AC50 (uM) modified / 1000) was > 90 µM.
For the compound `C=C(Cl)Cl` [1,1-Dichloroethylene], the CC50 at 24 h (AC50 (uM) modified / 1000, Tox21_110001=Tox21_200357, viability, 1 nM T3 present, 24 h) is > 100 µM.
Take `c1coc(Cn2cccc2)c1` [1-Furfurylpyrrole]: the CC50 at 24 h (AC50 (uM) modified / 1000) was > 90 µM.
As to `N#C[C@@H]1C[C@@H]2C[C@@H]2N1C(=O)[C@@H](N)C12CC3CC(CC(O)(C3)C1)C2` [Saxagliptin], the CC50 at 24 h (AC50 (uM) modified / 1000) is > 50 µM.
The same measure, in the same setting: under `O=S(=O)(O)CC(O)CCl` (stereo not drawn) [Sodium 3-chloro-2-hydroxypropane-1-sulfonate] stands > 90 µM; under `N[C@@H](CCC(=O)N[C@@H](CS)C(=O)NCC(=O)O)C(=O)O` [Glutathione], > 50 µM; under `CC(=O)O[C@H](CC(=O)[O-])C[N+](C)(C)C` [Acetyl-L-carnitine hydrochloride], > 90 µM.
Same read-out and setting: under `CC1=NNC(=O)N(/N=C/c2cccnc2)C1` [Pymetrozine] stands > 90 µM.
